In patent publication US12570657B2, “Mesylate salts of heterocyclic cytokinins, compositions containing these derivatives and use thereof” (UNIVERZITA PALACKEHO V OLOMOUCI, priority 2020, dated 2026):

Assays:
[1] = tested on: G361 (malignant melanoma); test: In vitro cytotoxicity, Calcein AM assay, G-361; type: cell-based; details: Homo sapiens, 72 h, 3-day Calcein-AM assay
Excerpt: Because toxic compounds adversely affect cell metabolic processes, many standard cytotoxicity assays are based on measuring the rate of metabolism of various artificial substrates. The resulting product is then quantified, for example, by spectrometry. Assays can be easily modified for use in 96-well plates, A microtiter assay based on the quantification of Calcein AM metabolism was used to evaluate the cytotoxicity of cytokinins, for example meta-topolin, ortho-topolin, kinetin, BAP or its mesylate salts, but also a number of other cytokinin mesylate derivatives according to the invention. The test is widely used in drug screening programs and in chemosensitivity testing. In living cells, Calcein AM is enzymatically hydrolyzed and the accumulation of the resulting calcein is manifested by green fluorescence. The following cell lines—RPMI 8226 (multiple myeloma), CEM (T-lymphoblastic leukemia), K562 (chronic myeloid leukemia), HL-60 (promyelocytic, leukemia), MCF-7 (breast adenocarcinoma), HeLa (cervical cancer), G361 (malignant melanoma), HOS (human osteosarcoma) and BJ (human foreskin fibroblasts)—were obtained from the American Type Culture Collection (Manassas, VA, USA). These cells were maintained in standard DMEM or RPMI medium (Sigma, MO, USA) supplemented with heat-inactivated fetal bovine serum (10%) with 2 mM L-glutamine and penicillin-streptomycin (1%) under standard cell culture conditions (37° C., 5% CO2 in a humid environment) and subcultured two or three times a week using a standard trypsinization procedure. Approximately 10,000 cells in 80 μl of medium were seeded in a 96-well microtiter plate. After 12 hours of incubation, the compounds to be tested were added in 20 μl aliquots. Control cultures were treated with DMSO alone. […] Serial, 3-fold dilutions (six in total, peak concentrations in 166 μM incubations) of each compound were tested. After 72 hours of incubation, Calcein AM solution (Molecular Probes) was added to a final concentration of 1 μg/ml and the cells were incubated for another hour. Free calcein fluorescence was then quantified using a Fluoroscan Ascent fluorometer (Microsystems), and the percentage of surviving cells in each well was calculated by dividing the OD obtained from each cell by the exposed cells by the mean OD obtained from control wells×100%, Finally, IC50 values (concentration causing a 50% decrease in cellular esterase activity) were calculated for each compound generated from dose-response curves (Krys̆tof et al., 2005, Bioorg. Med. Chem. Lett. 12, 3283-3286). The IC50 values reported here are averages obtained from at least three independent experiments, where the individual replication values fell within 20% of the average. Growth inhibition was calculated using the following equation: […](mean FDwell exposed to drug−mean FDblank)/(mean FDcontrol well−mean FDblank)×100%.
(§1) Cytoxicity of compounds was tested on panel of cell lines of different histogenetic and species origin.

rose explants = test: In vitro and post vitro multiplication and rooting of rose; type: in vivo, Rosa multiflora; details: for Number of roots per plant / Overall length of plant (cm): Ex vitro, after four weeks of acclimatising in peat; for Number of new shoots per explant / Number of roots per explant / Overall length of explant (cm) / number of flowers per explant: In vitro, 10 μM cytokinin, 8 weeks
Description: The aim of this experiment was to test whether the new compounds are of practical use in tissue culture practice. The multiplication rate was investigated and the post vitro effects on rooting were examined Rosa hybrida (pot rose cultivar) was cultured in 350 ml vessels with a screw on polycarbonate lid. Each culture vessel contained 100 ml autoclaved medium (120° C., 20 min). The cultures were maintained at 23±2° C. under a 16 h photoperiod at 40 μM·m^−2 s^−1 PAR. The basal medium (BMR) contained Murashige and Skoog (1962) macroelements, microelements and vitamins, 95 μM NaFeEDTA, 555 μM myo-inositol, 111 mM sucrose, 1.332 mM glycine, 684 μM L-glutamine and 7 g/l agar. This medium was supplemented with 10 μM BAP, mT, or 3MeOBAP, or the corresponding mesylate salts. The control medium didn't contain any cytokinin After a culture period of 8 weeks, the number of induced shoots per explant was determined, as well as root number/explant and total root length/explant. The roots were removed and the explants (shoot clusters) were planted in unfertilised peat. After four weeks of acclimatising in a fog unit, root number and root length was determined. As expected, a cytokinin free medium yielded almost no new shoots. The original shoot explant grew out as a good quality single shoot that rooted very well. […] Explants growing on cytokininin mesylates were characterized by a high multiplication index (a large number of new shoots) and were more rooted in comparison with free bases. The use of cytokinin mesylates led to an increase in all monitored parameters in plant culture compared to free cytokinin bases.

HOS (human osteosarcoma) = test: In vitro cytotoxicity, Calcein AM assay, HOS; type: cell-based; details: Homo sapiens, 72 h, 3-day Calcein-AM assay
Excerpt: Because toxic compounds adversely affect cell metabolic processes, many standard cytotoxicity assays are based on measuring the rate of metabolism of various artificial substrates. The resulting product is then quantified, for example, by spectrometry. Assays can be easily modified for use in 96-well plates, A microtiter assay based on the quantification of Calcein AM metabolism was used to evaluate the cytotoxicity of cytokinins, for example meta-topolin, ortho-topolin, kinetin, BAP or its mesylate salts, but also a number of other cytokinin mesylate derivatives according to the invention. The test is widely used in drug screening programs and in chemosensitivity testing. In living cells, Calcein AM is enzymatically hydrolyzed and the accumulation of the resulting calcein is manifested by green fluorescence. […] These cells were maintained in standard DMEM or RPMI medium (Sigma, MO, USA) supplemented with heat-inactivated fetal bovine serum (10%) with 2 mM L-glutamine and penicillin-streptomycin (1%) under standard cell culture conditions (37° C., 5% CO2 in a humid environment) and subcultured two or three times a week using a standard trypsinization procedure. Approximately 10,000 cells in 80 μl of medium were seeded in a 96-well microtiter plate. After 12 hours of incubation, the compounds to be tested were added in 20 μl aliquots. Control cultures were treated with DMSO alone. […] After 72 hours of incubation, Calcein AM solution (Molecular Probes) was added to a final concentration of 1 μg/ml and the cells were incubated for another hour.
as §1

[2] = tested on: retinal epitelium cells ARPE-19; test: Cytotoxicity for non-cancer cells, resazurine reduction assay, ARPE-19
Description: (§2) It is used for viability testing of both bacterial and eukaryotic cells. […] Cultivation medium was DMEM with 10% FBS. Before the experiment, the cells were subcultured for 2 weeks. For the cytotoxicity evaluation, the cells were trypsinized and pipetted into 96 well plates (5000 cells per well in 80 microliters). After 24 hours, 5× concentrated solutions of the tested compounds in the medium were added. […] IC50 values were calculated from dose response curves using drc library for R programming environment.

keratinocytes HaCaT = test: Cytotoxicity for non-cancer cells, resazurine reduction assay, HaCaT
Description: as §2

skin fibroblasts BJ = test: Cytotoxicity for non-cancer cells, resazurine reduction assay, BJ; details: human, 72 h
Description: as §2

[3] = resazurin, 72 hour treatment, ARPE-19
[4] = resazurin, 72 hour treatment, HaCaT

For `COc1cccc(CNc2ncnc3nc[nH]c23)c1` [3MeOBAP, 6-(3-methoxybenzylamino)purine], the IC50 [1] was 125 µM, the “Number of roots per plant” value (rose explants) was 1.7 and the “Overall length of plant (cm)” value (rose explants) was 4.1 cm. For the same compound, the “Number of new shoots per explant” value (rose explants) was 4.3, the “Number of roots per explant” value (rose explants) was 0.0 and the “Overall length of explant (cm)” value (rose explants) was 0.0 cm. The “number of flowers per explant” value (rose explants) was 0.03 and the IC50 (HOS (human osteosarcoma)) was greater than 167 µM.

With `CS(=O)(=O)O.c1ccc(CNc2ncnc3nc[nH]c23)cc1` [BAP mesylate, 6-benzylaminopurine mesylate] the “Cytotoxicity for Fibroblasts (GI20) ARPE-19” value (“Cytotoxicity … (GI20) ARPE-19” for short) [2, 3] was greater than 100 μM, the “Cytotoxicity for Fibroblasts (GI20) HaCaT” value (“Cytotoxicity … (GI20) HaCaT” below) (keratinocytes HaCaT; [4]) was greater than 100 µM and the “Number of roots per plant” value (rose explants) was 0.9. For the same compound, the “Overall length of plant (cm)” value (rose explants) was 1.4 cm, the “Number of new shoots per explant” value (rose explants) was 4.1 and the “Number of roots per explant” value (rose explants) was 0.0. The “Overall length of explant (cm)” value (rose explants) was 0.0 cm, the “number of flowers per explant” value (rose explants) was 0.00 and the “Cytotoxicity for Fibroblasts (GI20) BJ” value (skin fibroblasts BJ) was greater than 100 µM.

For `c1ccc(CNc2ncnc3nc[nH]c23)cc1` [BAP, 6-benzylaminopurine], the “Cytotoxicity … (GI20) ARPE-19” value ([2]; human, 72 h) was greater than 100 μM, the “Cytotoxicity … (GI20) HaCaT” value (keratinocytes HaCaT; human, 72 h) was greater than 100 µM and the “Number of roots per plant” value (rose explants) was “rooted badly”. For the same compound, the “Overall length of plant (cm)” value (rose explants) was 1.1 cm, the “Number of roots per plant” value (rose explants; listed as 6-benzylaminopurine) was 0.6 and the “Number of new shoots per explant” value (rose explants) was “high shoot multiplication rate”. For the same compound, the “Number of roots per explant” value (rose explants) was 0.0, the “Overall length of explant (cm)” value (rose explants) was 0.0 cm and the “number of flowers per explant” value (rose explants) was 0.00. For the same compound, the “Number of new shoots per explant” value (rose explants; listed as 6-benzylaminopurine) was 3.8, the IC50 (HOS (human osteosarcoma)) was greater than 167 µM and the “Cytotoxicity for Fibroblasts (GI20) BJ” value (skin fibroblasts BJ) was 137.5 µM.

In the case of `CS(=O)(=O)O.Oc1cccc(CNc2ncnc3nc[nH]c23)c1` [mT mesylate, 6-(3-hydroxybenzylamino)purine mesylate], the “Cytotoxicity … (GI20) ARPE-19” value [2, 3] is reported as greater than 100 μM, the “Cytotoxicity … (GI20) HaCaT” value (keratinocytes HaCaT; [4]) is reported as greater than 100 µM and the “Number of roots per plant” value (rose explants) is reported as 1.8. The “Overall length of plant (cm)” value (rose explants) was 4.3 cm, the “Number of new shoots per explant” value (rose explants) was 2.4 and the “Number of roots per explant” value (rose explants) was 0.0. For the same compound, the “Overall length of explant (cm)” value (rose explants) was 0.0 cm, the “number of flowers per explant” value (rose explants) was 0.17 and the “Cytotoxicity for Fibroblasts (GI20) BJ” value (skin fibroblasts BJ) was greater than 100 µM.

With `Oc1cccc(CNc2ncnc3nc[nH]c23)c1` [meta-topolin (mT), 6-(3-hydroxybenzylamino)purine] the IC50 [1] was greater than 167 µM, the “Cytotoxicity … (GI20) ARPE-19” value [2, 3] was greater than 100 μM and the “Cytotoxicity … (GI20) HaCaT” value (keratinocytes HaCaT; [4]) was greater than 100 µM. The “Number of roots per plant” value (rose explants) was 1.4, the “Overall length of plant (cm)” value (rose explants) was 3.8 cm and the “Number of new shoots per explant” value (rose explants) was 2.1. The “Number of roots per explant” value (rose explants) was 0.0, the “Overall length of explant (cm)” value (rose explants) was 0.0 cm and the “number of flowers per explant” value (rose explants) was 0.16. For the same compound, the IC50 (HOS (human osteosarcoma)) was greater than 167 µM and the “Cytotoxicity for Fibroblasts (GI20) BJ” value (skin fibroblasts BJ) was greater than 100 µM.

In the case of `Oc1ccccc1CNc1ncnc2nc[nH]c12` [ortho-topolin (oT), 6-(2-hydroxybenzylamino)purine], the IC50 [1] is reported as 103 µM, the “Cytotoxicity … (GI20) ARPE-19” value [2, 3] is reported as greater than 100 μM and the “Cytotoxicity … (GI20) HaCaT” value (keratinocytes HaCaT; [4]) is reported as greater than 100 µM. The IC50 (HOS (human osteosarcoma)) was greater than 167 µM and the “Cytotoxicity for Fibroblasts (GI20) BJ” value (skin fibroblasts BJ) was 98.7 µM.
